IC50 and GI50 data for 10 molecules are collected here from patent publication US10160755B2 (Plexxikon Inc., priority 2015, dated 2018).

By IC50 is commonly meant the concentration needed to halve the response being measured. Low readings indicate greater potency in that assay, high ones weaker potency in that assay.

Positions count from the first letter of the chain named.

Experiment [1] addresses T1, FLT3-D835Y (Homo sapiens, UniProt P36888, D835Y).
T1 construct: purchased Invitrogen PV3967
T1 sequence (P36888 27-993 D835Y): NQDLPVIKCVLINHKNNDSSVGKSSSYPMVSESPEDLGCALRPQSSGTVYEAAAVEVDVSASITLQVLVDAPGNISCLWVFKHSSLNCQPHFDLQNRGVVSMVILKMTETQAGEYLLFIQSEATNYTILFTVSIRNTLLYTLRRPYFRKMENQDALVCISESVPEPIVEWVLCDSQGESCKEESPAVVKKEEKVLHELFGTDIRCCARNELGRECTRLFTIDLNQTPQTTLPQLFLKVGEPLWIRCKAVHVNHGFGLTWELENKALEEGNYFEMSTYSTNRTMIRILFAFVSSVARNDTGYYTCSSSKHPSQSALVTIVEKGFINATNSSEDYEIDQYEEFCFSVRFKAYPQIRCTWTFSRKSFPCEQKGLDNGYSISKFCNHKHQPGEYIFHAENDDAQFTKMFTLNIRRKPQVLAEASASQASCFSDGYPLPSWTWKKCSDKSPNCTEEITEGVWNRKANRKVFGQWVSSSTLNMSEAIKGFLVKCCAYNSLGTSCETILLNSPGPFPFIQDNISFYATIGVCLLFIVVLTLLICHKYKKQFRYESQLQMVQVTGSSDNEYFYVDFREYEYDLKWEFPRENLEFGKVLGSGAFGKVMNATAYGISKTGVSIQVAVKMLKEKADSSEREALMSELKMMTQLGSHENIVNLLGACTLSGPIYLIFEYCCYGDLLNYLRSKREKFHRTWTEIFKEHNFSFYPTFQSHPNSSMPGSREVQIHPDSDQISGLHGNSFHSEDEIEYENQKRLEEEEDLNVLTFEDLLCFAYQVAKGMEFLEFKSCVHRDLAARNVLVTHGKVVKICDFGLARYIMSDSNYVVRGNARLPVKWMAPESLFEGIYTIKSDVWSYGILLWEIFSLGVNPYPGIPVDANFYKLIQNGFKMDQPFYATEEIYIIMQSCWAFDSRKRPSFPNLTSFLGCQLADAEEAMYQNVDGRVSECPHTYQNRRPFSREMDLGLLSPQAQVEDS
In words: FLT3-D835Y biochemical kinase assay (AlphaScreen). In short, it runs like this: (§1)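 AlphaScreen read-out of tyrosine phosphorylation of a 30 nM biotinylated poly(Glu4-Tyr) substrate, captured on streptavidin donor and PY20 acceptor beads at room temperature. ATP for IC50 work was 100 μM with FLT3-ITD and 10 μM with FLT3-D835Y; reduced 580 nm proximity signal reflects kinase inhibition.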

Experiment [2] concerns the target T2, BA/F3-FLT3-ITD + F691L cells (Homo sapiens, UniProt P36888, F691L, cells depend on it, form not given).
T2 sequence (P36888 1-993 F691L): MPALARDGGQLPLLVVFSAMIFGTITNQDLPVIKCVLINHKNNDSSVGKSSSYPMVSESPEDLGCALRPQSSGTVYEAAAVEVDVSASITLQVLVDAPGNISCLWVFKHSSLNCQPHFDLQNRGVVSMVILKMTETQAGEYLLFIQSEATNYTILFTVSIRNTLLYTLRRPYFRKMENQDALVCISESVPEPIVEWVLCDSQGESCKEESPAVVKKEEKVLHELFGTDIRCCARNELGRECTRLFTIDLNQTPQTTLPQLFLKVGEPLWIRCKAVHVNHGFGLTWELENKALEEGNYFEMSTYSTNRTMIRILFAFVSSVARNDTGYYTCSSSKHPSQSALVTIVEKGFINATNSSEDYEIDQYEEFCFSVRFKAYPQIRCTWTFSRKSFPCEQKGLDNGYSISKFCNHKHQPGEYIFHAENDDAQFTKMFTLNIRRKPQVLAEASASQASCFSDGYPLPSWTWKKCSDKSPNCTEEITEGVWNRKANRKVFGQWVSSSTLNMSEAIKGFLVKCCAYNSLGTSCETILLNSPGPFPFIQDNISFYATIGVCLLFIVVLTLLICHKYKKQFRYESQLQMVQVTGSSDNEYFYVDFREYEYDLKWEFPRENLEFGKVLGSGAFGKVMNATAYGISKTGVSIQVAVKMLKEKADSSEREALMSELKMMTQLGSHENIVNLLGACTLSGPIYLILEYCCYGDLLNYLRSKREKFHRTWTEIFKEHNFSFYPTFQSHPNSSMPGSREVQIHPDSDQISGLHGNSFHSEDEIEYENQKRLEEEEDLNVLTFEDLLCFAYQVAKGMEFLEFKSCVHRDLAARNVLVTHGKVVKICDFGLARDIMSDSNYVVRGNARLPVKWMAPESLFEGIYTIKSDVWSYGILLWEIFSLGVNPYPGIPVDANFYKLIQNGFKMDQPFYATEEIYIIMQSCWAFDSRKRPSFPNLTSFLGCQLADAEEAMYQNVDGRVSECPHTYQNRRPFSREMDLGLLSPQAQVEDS
In words: BA/F3-FLT3-ITD + F691L cell proliferation assay (CellTiter-Glo). It counts as cell-based, murine. The settings on record: BaF3 FLT3 ITD/F691L cells; read-out: Cell Activity (IC50 μM) BaF3_FLT3_ITD/F691L. The text has this: The FLT3 inhibitors may also be assessed using leukemia cell lines that express endogenous FLT3-ITD or cells that are engineered to express wild-type or mutant FLT3. The cells expressing endogenous FLT3 are dependent upon FLT3 catalytic activity for growth. For the engineered cells, murine BA/F3 cells were transfected with full-length FLT3 (either wild-type, or containing the ITD, D835Y, or F691L mutations, as noted). The parental BA/F3 cells are dependent upon Interleukin-3 (IL-3) for survival, and introduction of the FLT3 constructs renders these cells dependent upon FLT3 kinase activity when cultured in the absence of IL-3. Engineered BA/F3 cell growth assays can be performed in either the absence or presence of IL-3, to assess the compound inhibition of FLT3 or to detect the presence of off-target activity, respectively. Inhibitors of FLT3 kinase activity reduce or eliminate the FLT3 oncogenic signaling, resulting in reduced cell proliferation. This inhibition is measured as a function of compound concentration to assess IC50 values.
Cells were seeded at 1×10^4 cells per well of a 96 well cell culture plate in 50 μl of cell culture medium. Compounds were dissolved in DMSO, typically at a concentration of 5 mM and were serially diluted 1:3 for a total of eight points and added to the cells to final concentrations of 10, 3.3, 1.1, 0.37, 0.12, 0.041, 0.014 and 0.0046 μM in 100 μl cell culture medium (final concentration 0.2% DMSO). […] The cells were incubated at 37° C., 5% CO2 for three days. CellTiter-Glo Buffer (Promega Cell Viability Assay catalog #G7573) and substrate were equilibrated to room temperature, and enzyme/substrate Recombinant Firefly Luciferase/Beetle Luciferin was reconstituted. The cell plates were equilibrated to room temperature for 30 minutes, then lysed by addition of an equivalent volume of the Celltiter-Glo Reagent. The plate was mixed for 10 minutes on a plate shaker to lyse the cells. The plates were read on a Tecan M1000 using Luminescence protocol modified to read 0.1 s per well. The luminescence reading assesses the ATP content, which correlates directly with cell number such that the reading as a function of compound concentration was used to determine the IC50 value.

Experiment [3] addresses T3, FLT3-ITD (Homo sapiens, UniProt P36888).
T3 construct: FLT3-ITD; Invitrogen #PV6190
T3 sequence (P36888 1-993): T2 sequence (P36888 1-993 F691L) with L691F
In words: FLT3-ITD biochemical kinase assay (AlphaScreen). The method, boiled down: as §1
For orientation: In Alpha technology, singlet oxygen from a donor bead excites a nearby acceptor bead.

For `CC(C)(C)n1cnc2ccc(-c3c[nH]c4ncc(-c5ccc(N6CCOCC6)cc5)cc34)cc21` [P-299, 4-[4-[3-(3-tert-butylbenzimidazol-5-yl)-1H-pyrrolo[2,3-b]pyridin-5-yl]phenyl]morpholine], the IC50 in experiment [1] is 0.0001 to 1 µM. Moreover, the GI50 in experiment [2] is 0.0001 to 1 µM.

Consider `CC(C)(C)n1cnc2ccc(-c3c[nH]c4ncc(-c5cccc(N6CCNCC6)c5)nc34)cc21` [P-302, 7-(3-tert-butylbenzimidazol-5-yl)-2-(3-piperazin-1-ylphenyl)-5H-pyrrolo[2,3-b]pyrazine], for which the IC50 in experiment [1] was in the range of 0.0001 to 1 µM. Moreover, the GI50 in experiment [2] lay within 0.0001 to 1 µM.

`c1cc(N2CCOCC2)ccc1-c1cnc2[nH]cc(-c3ccc4ncn(C5CCCNC5)c4c3)c2c1` (centres unmarked) [P-300, 4-[4-[3-[3-(3-piperidyl)benzimidazol-5-yl]-1H-pyrrolo[2,3-b]pyridin-5-yl]phenyl]morpholine] displayed an IC50 in experiment [1] of 0.0001 to 1 µM. The GI50 in experiment [2] was 0.0001 to 1 µM.

For the molecule `N#Cc1cc(-c2cnc3[nH]cc(-c4ccc5ncn(C6CCCNC6)c5c4)c3n2)ccn1` (centres unmarked) [P-304, 4-[7-[3-(3-piperidyl)benzimidazol-5-yl]-5H-pyrrolo[2,3-b]pyrazin-2-yl]pyridine-2-carbonitrile], in experiment [1], the IC50 is 0.0001 to 1 µM. The GI50 in experiment [2] fell in the range of 0.0001 to 1 µM.

For the molecule `c1cc(-c2cnc3[nH]cc(-c4ccc5ncn(C6CCCNC6)c5c4)c3n2)cc(N2CCOCC2)c1` (centres unmarked) [P-303, 4-[3-[7-[3-(3-piperidyl)benzimidazol-5-yl]-5H-pyrrolo[2,3-b]pyrazin-2-yl]phenyl]morpholine], the IC50 in experiment [1] lay in the range of 0.0001 to 1 µM. In addition, the GI50 in experiment [2] is 0.0001 to 1 µM.

For the molecule `COc1cnc2[nH]cc(-c3ccc4ncn(-c5ccc(F)c(Cl)c5)c4c3)c2c1` [P-109, 1-(3-chloro-4-fluoro-phenyl)-6-(5-methoxy-1H-pyrrolo[2,3-b]pyridin-3-yl)benzimidazole], the IC50 in experiment [1] is 0.0001 to 1 µM. Further, the GI50 in experiment [2] was in the range of 0.0001 to 1 µM.

As for `CN1CCN(c2ccc(-c3cnc4[nH]cc(-c5ccc6ncn(C7CCCNC7)c6c5)c4n3)cn2)CC1` (centres unmarked) [P-334, 2-[6-(4-methylpiperazin-1-yl)-3-pyridyl]-7-[3-(3-piperidyl)benzimidazol-5-yl]-5H-pyrrolo[2,3-b]pyrazine], the GI50 in experiment [2] is 0.0001 to 1 µM. In experiment [3], this molecule displayed an IC50 of 0.0001 to 1 µM.

For `CC(C)(C)n1cnc2ccc(-c3c[nH]c4ncc(-c5ccnc(N6CCNCC6)c5)nc34)cc21` [P-307, 7-(3-tert-butylbenzimidazol-5-yl)-2-(2-piperazin-1-yl-4-pyridyl)-5H-pyrrolo[2,3-b]pyrazine], in experiment [1], the IC50 lay in the range of 0.0001 to 1 µM. Also, the GI50 in experiment [2] was 0.0001 to 1 µM.

Molecule `Cn1cnc2ccc(-c3c[nH]c4ncc(C(=O)Nc5cccc(F)c5)cc34)cc21` [P-177, N-(3-fluorophenyl)-3-(3-methylbenzimidazol-5-yl)-1H-pyrrolo[2,3-b]pyridine-5-carboxamide] returned an IC50 in experiment [1] of 0.0001 to 1 µM. Besides, the GI50 in experiment [2] was 0.0001 to 1 µM.

Take `CN1CCN(c2ccc(-c3cnc4[nH]cc(-c5ccc6ncn(C(C)(C)C)c6c5)c4n3)cn2)CC1` [P-333, 7-(3-tert-butylbenzimidazol-5-yl)-2-[6-(4-methylpiperazin-1-yl)-3-pyridyl]-5H-pyrrolo[2,3-b]pyrazine]: the GI50 in experiment [2] lay in the range of 0.0001 to 1 µM. This molecule registered an IC50 in experiment [3] of 0.0001 to 1 µM.
